In ChEMBL document CHEMBL5244260, “Aldose reductase and protein tyrosine phosphatase 1B inhibitors as a promising therapeutic approach for diabetes mellitus” (Eur J Med Chem, 2020):
Blank lines part the entries; values can stand above or below the molecule they belong to.

What was measured:
[1] = molecular target: Aldo-keto reductase family 1 member B1 (Rattus norvegicus, UniProt P07943); test: Inhibition of Aldose reductase in rat lens using D,L-glyceraldehyde as substrate in presence of NADPH by spectrophotometric assay; format: tissue-based
[2] = molecular target: T1, Tyrosine-protein phosphatase non-receptor type 1 (Homo sapiens, UniProt P18031); test: Inhibition of PTP1B (1 to 321 residues) (unknown origin) expressed in Escherichia coli BL21 assessed as inhibition constant using pNPP as substrate incubated for 2 to 3 min by spectrophotometry analysis
T1 sequence (P18031 whole entry): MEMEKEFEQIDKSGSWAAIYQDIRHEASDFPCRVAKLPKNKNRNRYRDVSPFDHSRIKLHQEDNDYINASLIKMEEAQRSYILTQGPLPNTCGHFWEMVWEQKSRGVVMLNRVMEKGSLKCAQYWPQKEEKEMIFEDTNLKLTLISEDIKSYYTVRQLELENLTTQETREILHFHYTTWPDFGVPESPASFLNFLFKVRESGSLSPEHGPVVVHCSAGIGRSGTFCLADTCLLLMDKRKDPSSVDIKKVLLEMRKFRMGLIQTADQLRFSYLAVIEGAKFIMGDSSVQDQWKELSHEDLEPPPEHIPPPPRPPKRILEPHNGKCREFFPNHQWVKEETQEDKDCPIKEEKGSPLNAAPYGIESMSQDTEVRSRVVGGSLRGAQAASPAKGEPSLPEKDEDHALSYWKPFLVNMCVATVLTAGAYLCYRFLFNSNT

[3] = molecular target: T2, Aldo-keto reductase family 1 member B1 (Homo sapiens, UniProt P15121); test: Inhibition of Aldose reductase in human muscle tissue using D,L-glyceraldehyde as substrate in presence of NADPH by spectrophotometric assay; format: tissue-based
[4] = molecular target: T3, Peroxisome proliferator-activated receptor gamma (Homo sapiens, UniProt P37231); test: Agonist activity at Gal4-PPARgamma (unknown origin) transfected in HCT-116 cells incubated for 24 hrs by luciferase reporter assay; format: cell-based
T3 sequence (P37231 whole entry): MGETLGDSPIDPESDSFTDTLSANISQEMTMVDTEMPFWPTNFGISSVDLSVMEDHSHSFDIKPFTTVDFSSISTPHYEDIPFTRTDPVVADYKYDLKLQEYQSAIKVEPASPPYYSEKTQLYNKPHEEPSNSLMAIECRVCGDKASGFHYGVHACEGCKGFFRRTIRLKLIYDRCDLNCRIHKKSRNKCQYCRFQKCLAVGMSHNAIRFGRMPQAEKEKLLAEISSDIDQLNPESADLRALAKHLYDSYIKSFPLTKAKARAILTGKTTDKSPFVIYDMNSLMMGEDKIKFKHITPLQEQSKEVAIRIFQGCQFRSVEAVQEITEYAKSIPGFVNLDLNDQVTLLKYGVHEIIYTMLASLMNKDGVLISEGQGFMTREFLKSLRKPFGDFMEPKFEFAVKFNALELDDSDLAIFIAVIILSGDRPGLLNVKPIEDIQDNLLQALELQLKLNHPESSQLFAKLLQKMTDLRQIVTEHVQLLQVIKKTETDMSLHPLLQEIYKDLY

[5] = Inhibition of ALR2 in Wistar rat lens using D,L-glyceraldehyde as substrate preincubated for 1 min in presence of NADPH followed by substrate addition and measured after 4 mins by spectrophotometric assay; format: tissue-based
[6] = molecular target: T1, Tyrosine-protein phosphatase non-receptor type 1; test: Inhibition of human PTP1B using pNPP as substrate incubated for 30 min by UV-Visible spectrophotometer assay
[7] = Inhibition of ALR2 in Wistar rat using D,L-glyceraldehyde as substrate preincubated for 10 mins in presence of NADPH followed by substrate addition and measured after 4 mins by spectrophotometric assay
[8] = molecular target: T1, Tyrosine-protein phosphatase non-receptor type 1; test: Inhibition of human recombinant GST-tagged PTP1B (1 to 321 residues) expressed in Escherichia coli using pNPP as substrate by spectrophotometer assay
[9] = molecular target: T4, Prostaglandin G/H synthase 2 (Homo sapiens, UniProt P35354); test: Inhibition of COX-2 (unknown origin) by spectrophotometer assay
T4 sequence (P35354 whole entry): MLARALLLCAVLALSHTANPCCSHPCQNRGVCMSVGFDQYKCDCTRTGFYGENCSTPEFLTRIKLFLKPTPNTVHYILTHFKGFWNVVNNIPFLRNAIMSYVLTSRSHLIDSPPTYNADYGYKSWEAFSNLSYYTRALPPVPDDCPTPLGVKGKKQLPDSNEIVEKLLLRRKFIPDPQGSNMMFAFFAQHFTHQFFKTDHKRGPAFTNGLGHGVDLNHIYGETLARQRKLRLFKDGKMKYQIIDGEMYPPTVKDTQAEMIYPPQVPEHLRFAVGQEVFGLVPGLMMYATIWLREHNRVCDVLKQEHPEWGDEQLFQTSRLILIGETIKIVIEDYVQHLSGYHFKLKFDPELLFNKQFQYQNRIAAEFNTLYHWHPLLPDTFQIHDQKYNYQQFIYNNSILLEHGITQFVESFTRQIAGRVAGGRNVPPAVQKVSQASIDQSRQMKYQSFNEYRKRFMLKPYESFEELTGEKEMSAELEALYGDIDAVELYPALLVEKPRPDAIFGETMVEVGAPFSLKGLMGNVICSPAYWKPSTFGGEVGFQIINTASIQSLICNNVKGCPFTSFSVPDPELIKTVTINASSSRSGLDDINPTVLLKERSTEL

[10] = molecular target: T1, Tyrosine-protein phosphatase non-receptor type 1; test: Inhibition of human recombinant GST-tagged PTP1B (1 to 321 residues) expressed in Escherichia coli using pNPP as substrate preincubated for 10 mins followed by substrate addition and measured after 30 mins by microplate reader assay
Alpha-glucosidase = Alpha-glucosidase (Saccharomyces cerevisiae S288c, UniProt P53341+P38158+P07265); test: Inhibition of yeast alpha-glucosidase using PNP-G as substrate preincubated for 10 mins followed by substrate addition by spectrophotometer microplate reader assay; format: protein assay
[11] = molecular target: T2, Aldo-keto reductase family 1 member B1; test: Inhibition of human Aldose reductase using glyceraldehyde as substrate preincubated for 5 mins in presence of NADPH followed by substrate addition and measured after 3 mins by UV-visible spectrophotometric assay
[12] = molecular target: T1, Tyrosine-protein phosphatase non-receptor type 1; test: Inhibition of human recombinant PTP1B expressed in Escherichia coli BL21 (DE3) using pNPP as substrate by high-throughput screening assay
[13] = molecular target: T2, Aldo-keto reductase family 1 member B1; test: Inhibition of human ALR2 expressed in Escherichia coli BL21 (DE3) assessed as inhibition constant using D,L-glyceraldehyde as substrate in presence of NADPH by Michaelis-Menten analysis
[14] = molecular target: T2, Aldo-keto reductase family 1 member B1; test: Inhibition of Aldose reductase (unknown origin)
[15] = molecular target: T1, Tyrosine-protein phosphatase non-receptor type 1; test: Inhibition of human recombinant PTP1B using pNPP as substrate incubated for 40 min

Compound: CC(C)NC(=O)NS(=O)(=O)c1ccc(-n2nc(-c3ccc(F)cc3)ccc2=O)cc1
IC50 [1]: 45000 nM

Compound: CCCCCCCCCCCCCCC(=O)N[C@@H](Cc1ccc(C(F)(F)P(=O)(O)O)cc1)C(=O)N[C@@H](CC(=O)O)C(=O)N[C@@H](Cc1ccc(C(F)(F)P(=O)(O)O)cc1)C(N)=O
Ki [2]: 25 nM

Compound: Cc1ccc(F)c(N(C)S(=O)(=O)C[N+](=O)[O-])c1
IC50 [3]: 350 nM

Compound: C[C@@]12CCC[C@](C)(C(=O)O)[C@H]1CCc1cc(OCC(=O)Oc3ccccc3C(=O)O)ccc12
IC50 [6]: 2900 nM

Compound: O=[N+]([O-])c1cc(Br)cc2c1NC=NS2(=O)=O
IC50 [14]: 4600 nM

Compound: O=C(NCCCN1C[C@@H](O)[C@H](O)[C@H]1CO)c1ccc([N+](=O)[O-])cc1
IC50 [15]: 31000 nM

Further lines, results first:

EC50 [4]: > 47400 nM | IC50 [5]: 460 nM
Compound: O=C(O)Cn1ccc2cc(OCc3ccccc3)ccc21

IC50 [7]: 6.44 nM
Compound: O=C(O)Cn1c(=O)c(Cc2ccc(Br)cc2F)nc2ccc(F)cc21

IC50 [8]: 2900 nM
Compound: O=C1/C(=C/c2ccc(-c3ccccc3)cc2)NC(=S)N1c1ccccc1

IC50 [9]: 2810 nM | IC50 [10]: 17800 nM | IC50 (Alpha-glucosidase): 110 nM
Compound: CC(=O)c1cc2cc(-c3cccc(Cl)c3)oc2cc1O

IC50 [11]: 1300 nM
Compound: Nc1ccc(CNC(=O)c2ccc(Cl)cc2OCC(=O)O)c(F)c1

IC50 [12]: 1600 nM
Compound: Cc1cc(/C=C2/S/C(=N/c3ccc(Cl)cc3)NC2=O)c(C)n1-c1cc(C(=O)O)cc(C(=O)O)c1

Ki [13]: 107 nM
Compound: N#Cc1ccc(CNC(=O)c2ccc(Cl)cc2OCC(=O)O)cc1[N+](=O)[O-]
